Experimental data taken from US4062959A, “N-methyl-imidazole derivatives for treating mycotic infections” (Bayer Aktiengesellschaft, priority 1970, dated 1977).
Converted amounts (≈) assume the structure as drawn.

Key:
Test in all cases: Anti-mycotic action in vitro (MIC, serial dilution test)
Format in all cases: cell-based
[1] = test system: Candida albicans; settings: 28° C, 24 to 96 hours, meat water-glucose-bouillon (yeasts), dilution series 100-40-20-10-4-1, read-out: Minimal inhibitory concentration (MIC), Candida albicans
Description: (§1) The Table summarises the anti-mycotic actions in vitro of several preparations towards several species of fungi:
(§2) The MIC determination was carried out in a serial dilution test, in the dilution series 100-40-20-10-4-1 γ/ml of substrate. The following were used as nutrient substrates:
b. for yeasts: meat water -- glucose -- bouillon.
(§3) The incubation temperature was 28° C, and the incubation time was 24 to 96 hours.

[2] = test system: Microsporon felineum; settings: 28° C, 24 to 96 hours; Sabouraud's test medium (Dermatophytes); dilution series 100-40-20-10-4-1; read-out: Minimal inhibitory concentration (MIC), Microsporon felineum
Description: as §1, §2
(§4) a. for Dermatophytes: Sabouraud's test medium
as §3

[3] = test system: Trichophyton mentagrophytes; settings: 28° C, 24 to 96 hours, Sabouraud's test medium (Dermatophytes), dilution series 100-40-20-10-4-1, read-out: Minimal inhibitory concentration (MIC), Trichophyton mentagrophytes
Description: as §1, §2, §4, §3

[4] = test system: Aspergillus niger; settings: 28° C, 24 to 96 hours, dilution series 100-40-20-10-4-1, read-out: Minimal inhibitory concentration (MIC), Aspergillus niger
Description: as §1, §2, §3

[5] = test system: Penicillium commune; settings: 28° C, 24 to 96 hours, dilution series 100-40-20-10-4-1, read-out: Minimal inhibitory concentration (MIC), Penicillium commune
Description: as §1, §2, §3

Structure (SMILES) | MIC [1] [µg/mL] | MIC [2] [µg/mL] | MIC [3] [µg/mL] | MIC [4] [µg/mL] | MIC [5] [µg/mL]
c1ccc(C(c2ccccc2)(c2cncnc2)n2ccnc2)cc1 [Example 1, Diphenyl-pyrimid-5-yl-imidazol-1-yl-methane] | 40 (≈ 128 µM) | 40 (≈ 128 µM) | 4 (≈ 12.8 µM) | 10 (≈ 32 µM) | 100 (≈ 320 µM)
c1ccc(C(c2ccccc2)(c2cnccn2)n2ccnc2)cc1 [Example 2, Diphenyl-pyrazyl-imidazol-1-yl-methane] | 40 (≈ 128 µM) | 10 (≈ 32 µM) | 4 (≈ 12.8 µM) | 10 (≈ 32 µM) | 40 (≈ 128 µM)
Fc1ccc(C(c2ccccc2)(c2cnccn2)n2ccnc2)cc1 (stereo not drawn) [Example 3, 4-Fluorophenyl-phenyl-pyrazyl-imidazol-1-yl-methane] | 4 (≈ 12.1 µM) | 4 (≈ 12.1 µM) | < 1 | 4 (≈ 12.1 µM) | 4 (≈ 12.1 µM)
